Laboratory results published in patent US6809193B2, “Antisense oligonucleotide compositions and methods for the modulation of JNK proteins” (ISIS Pharmaceuticals, Inc., priority 1997, dated 2004).
Strand notation (5' to 3'): a small letter for the sugar, then the base; units joined by * are phosphorothioate-linked, units joined directly phosphodiester-linked; [ ] holds rarer units or linkages, { } end groups; capitals alone tell only the bases. e = 2'-O-(2-methoxyethyl) (MOE); [5mC] = 5-methylcytosine; d = 2'-deoxy (DNA)

Legend:
JNK2 mRNA = test: Northern assay, JNK2 mRNA expression in A549 cells; assay type: cell-based, human
Protocol: In order to evaluate the activity of potential JNK-modulating oligonucleotides, human lung carcinoma cell line A549 (American Type Culture Collection, 10801 University Boulevard, Manassas, Va. 20110-2209, No. ATCC CCL-185) cells or other cell lines as indicated in the Examples, were grown and treated with oligonucleotides or control solutions as detailed below. After harvesting, cellular extracts were prepared and examined for specific JNK mRNA levels or JNK protein levels (i.e., Northern or Western assays, respectively). In all cases, “% expression” refers to the amount of JNK-specific signal in an oligonucleotide-treated cell relative to an untreated cell (or a cell treated with a control solution that lacks oligonucleotide), and “% inhibition” is calculated as
100%−%Expression=%Inhibition.
The mRNA expression of each JNK protein was determined by using a nucleic acid probe specifically hybridizable thereto. Nucleic acid probes specific for JNK1, JNK2 and JNK3 are described in Examples 3, 4 and 5, respectively. The probes were radiolabelled by means well known in the art (see, e.g., Short Protocols in Molecular Biology, 2nd Ed., Ausubel et al., Eds., John Wiley & Sons, New York, 1992, pages 3-11 to 2-3-44 and 4-17 to 4-18; Ruth, Chapter 6 In: Methods in Molecular Biology, Vol. 26: Protocols for Oligonucleotide Conjugates, Agrawal, ed., Humana Press Inc., Totowa, N.J., 1994, pages 167-185; and Chapter 10 In: Molecular Cloning: A Laboratory Manual, 2nd Ed., Sambrook et al., Eds., pages 10.1-10.70). The blots were stripped and reprobed with a ^32P-labeled glyceraldehyde 3-phosphate dehydrogenase (G3PDH) probe (Clontech Laboratories, Inc., Palo Alto, Calif.) in order to confirm equal loading of RNA and to allow the levels of JNK transcripts to be normalized with regard to the G3PDH signals.
A549 cells were grown in T-75 flasks until 80-90% confluent. At this time, the cells were washed twice with 10 mL of media (DMEM), followed by the addition of 5 mL of DMEM containing 20 μg/mL of LIPOFECTIN™ (i.e., 1:1 (w/w) DOTMA/DOPE, Life Technologies, Gaithersburg, Md.; DOTMA=N-[1-(2,3-dioleyoxy)propyl]-N,N,N-trimethylammonium chloride; DOPE=dioleoyl phosphatidylethanolamine). The oligonucleotides were added from a 10 μM stock solution to a final concentration of 400 nM, and the two solutions were mixed by swirling the flasks. As a control, cells were treated with LIPOFECTIN™ without oligonucleotide under the same conditions and for the same times as the oligonucleotide-treated samples. After 4 hours at 37° C., the medium was replaced with fresh DMEM containing 10% serum. The cells were allowed to recover for 18 hours. Total cellular RNA was then extracted in guanidinium, subject to gel electrophoresis and transferred to a filter according to techniques known in the art (see, e.g., Chapter 7 In: Molecular Cloning: A Laboratory Manual, 2nd Ed., Sambrook et al., Eds., pages 7.1-7.87, and Short Protocols in Molecular Biology, 2nd Ed., Ausubel et al., Eds., John Wiley & Sons, New York, 1992, pages 2-24 to 2-30 and 4-14 to 4-29). Filters were typically hybridized overnight to a probe specific for the particular JNK gene of interest in hybridization buffer (25 mM KPO4, pH 7.4; 5×SSC; 5× Denhardt's solution, 100 μg/ml Salmon sperm DNA and 50% formamide) (Alahari et al., Nucl. Acids Res., 1993, 21, 4079). This was followed by two washes with 1×SSC, 0.1% SDS and two washes with 0.25×SSC, 0.1% SDS. Hybridizing bands were visualized by exposure to X-OMAT AR film and quantitated using a PHOSPHORIMAGER™ essentially according to the manufacturer's instructions (Molecular Dynamics, Sunnyvale, Calif.).
In initial screenings of a set of oligonucleotides derived from the JNK2 sequence (Table 9) for biological activity, a cDNA clone of JNK2 (Kallunki et al., Genes & Development, 1994, 8, 2996) was radiolabeled and used as a JNK2-specific probe in Northern blots. […]

JNK1 mRNA = test: Northern assay, JNK1 mRNA expression in A549 cells; assay type: cell-based, human; conditions: for RNA % Inhibition: JNK1 mRNA; for dose- and sequence-dependent response on JNK1 mRNA levels: A549 cells, 50, 100, 200 and 400 nM
rat JNK2 mRNA = test: Northern assay, rat JNK2 (p54a) mRNA in A10 cells; assay type: cell-based; conditions: for inhibition of rat JNK2 mRNA levels: Table 22; for capacity to modulate both JNK1 and JNK2 (Pan JNK): rat JNK1 and JNK2 mRNA
Protocol: (§1) In order to study the role of JNK proteins in animal models, oligonucleotides targeted to the genes encoding JNK1, JNK2 and JNK3 of Rattus norvegicus were prepared. These oligonucleotides are 2′-methoxyethoxy, phosphodiester/2′-hydroxyl, phosphorothioate/2′-methoxyethoxy, phosphodiester “gapmers” in which every cytosine residue is 5-methylcytosine (msc). These antisense compounds were synthesized according to the methods of the disclosure. Certain of these oligonucleotides are additionally specifically hybridizable to JNK genes from other species as indicated herein. The oligonucleotides described in this Example were tested for their ability to modulate rat JNK mRNA levels essentially according to the methods described in the preceding Examples, with the exceptions that the cell line used was rat A10 aortic smooth muscle cells (ATCC No. ATCC CRL-1476) and the probes used were specific for rat JNK1, JNK2 or JNK3 (see infra). A10 cells were grown and treated with oligonucleotides essentially as described by (Cioffi et al. Mol. Pharmacol., 1997, 51, 383).
(§2) These antisense compounds were tested for their ability to modulate levels of p54? (JNK1) and p54a (JNK2) mRNA in A10 cells via Northern assays. Due to the high degree of sequence identity between the human and rat genes, radiolabeled human JNK1 (Example 3) and JNK2 (Example 4) cDNAs functioned as specific probes for the rat homologs.
These antisense compounds were tested for their ability to modulate levels of p54a (JNK2) mRNA in A10 cells using the radiolabeled human JNK2 cDNA as a probe as described supra. Oligonucleotides showing levels of inhibition from≧about 60% to about 100% of rat JNK2 mRNA levels include ISIS Nos. 18254, 18255, 18257, 18258, 18259, 18260 and 18265 (SEQ ID NOS:125, 126, 128, 129, 130, 131 and 136, respectively). These oligonucleotides are preferred embodiments of the invention for modulating rat JNK2 expression. […] These oligonucleotides are thus more preferred embodiments of the invention for modulating rat JNK2 expression. ISIS 18259 (SEQ ID NO:130) was chosen for use in further studies (infra).
(§3) A dose response study was conducted using oligonucleotides targeted to rat JNK1 (ISIS 21859; SEQ ID NO:113) and JNK2 (ISIS 18259; SEQ ID NO:130) and Northern assays.

rat JNK1 mRNA = test: Northern assay, rat JNK1 (p54?) mRNA in A10 cells; assay type: cell-based; conditions: for inhibition of rat JNK1 mRNA levels: Table 20
Protocol: as §1, §2, §3

[1] = t = 48 h, 300 nM for initial 20 hours then 200 nM for 4 hours

With “12567 (antisense dG*dG*dT*dC*dC*dC*dG*dT*dC*dG*dA*dG*dG*dC*dA*dT*dC*dA*dA*dG) [compound 12567]” the “% EXPRESSION” value (JNK2 mRNA; JNK2 mRNA, A549 cells, 400 nM oligonucleotide, relative to control) was 18%.
“15348 (antisense CTCTCTGTAGGCCCGCTTGG; wingmer, 5' 2'-MOE, phosphorothioate, chemistry not fully specified) [compound 15348]” was tested, and the “RNA % Inhibition” value (JNK1 mRNA; [1]) was greater than 70% and the “RNA % Inhibition” value (JNK1 mRNA; t = 72 h) was greater than 70%.
With “15350 (antisense CTCTCTGTAGGCCCGCTTGG; wingmer, 3' P=O 2'-MOE, chemistry not fully specified) [compound 15350]” the “RNA % Inhibition” value (JNK1 mRNA; [1]) was 50.8%.
For “15351 (antisense CTCTCTGTAGGCCCGCTTGG; wingmer, 5' P=O 2'-MOE, chemistry not fully specified) [compound 15351]”, the “RNA % Inhibition” value (JNK1 mRNA; [1]) was greater than 70%.
With “15354 (antisense eGeTe[5mC]e[5mC]eG*dG*dG*dC*dC*dA*dG*dG*dC*dC*eAeAeAeGeTe[5mC]) [compound 15354]” the “inhibition of JNK2 mRNA expression” value (JNK2 mRNA; 400 nM, Northern assay, Table 12) was “approximately 80%”.
For “18257 (antisense eGeAeTeAeT*d[5mC]*dA*dA*d[5mC]*dA*dT*dT*d[5mC]*dT*d[5mC]*e[5mC]eTeTeGeT) [compound 18257]”, the “inhibition of rat JNK2 mRNA levels” value (rat JNK2 mRNA; A10 cells) was no less than 60%.
“18259 (antisense eGe[5mC]eTe[5mC]eA*dG*dT*dG*dG*dA*d[5mC]*dA*dT*dG*dG*eAeTeGeAeG) [compound 18259]” was tested, and the “dose response, levels of mRNA encoding rat JNK2” value (rat JNK2 mRNA; A10 cells, Northern assays) was “specifically modulate”.
For “18260 (antisense eAeTe[5mC]eTeG*d[5mC]*dG*dA*dG*dG*dT*dT*dT*d[5mC]*dA*eTe[5mC]eGeGe[5mC]) [compound 18260]”, the “inhibition of rat JNK2 mRNA levels” value (rat JNK2 mRNA; A10 cells) was no less than 60%, the “% Inhibition” value (rat JNK2 mRNA; rat JNK2 (p54a) mRNA in A10 cells, control = LIPOFECTIN only = 0%) was 59% and the “% EXPRESSION” value (rat JNK2 mRNA; rat JNK2 (p54a) mRNA in A10 cells, control = LIPOFECTIN only = 100%) was 41%.
“18265 (antisense eTeGeTe[5mC]eA*dG*d[5mC]*dT*d[5mC]*dT*dA*d[5mC]*dA*dT*dT*eAeGeGe[5mC]eA) [compound 18265]” was tested, and the “inhibition of rat JNK2 mRNA levels” value (rat JNK2 mRNA; A10 cells) was no less than 60%.
For “21858 (antisense CCTGCTCGCGGCTCCGCGTT; 2'-O-methyl wings, phosphorothioate gap, chemistry not fully specified) [compound 21858]”, the “inhibition of rat JNK1 mRNA levels” value (rat JNK1 mRNA) was “at least 90%”.
With “21859 (antisense CTCATGATGGCAAGCAATTA; 2'-O-methyl wings, phosphorothioate gap, chemistry not fully specified) [compound 21859]” the “dose response, levels of mRNA encoding rat JNK1” value (rat JNK1 mRNA; Northern assays) was “specifically modulate levels of mRNA encoding JNK1” and the “inhibition of rat JNK1 mRNA levels” value (rat JNK1 mRNA) was “at least 90%”.
With “21860 (antisense TGTTGTCACGTTTACTTCTG; 2'-O-methyl wings, phosphorothioate gap, chemistry not fully specified) [compound 21860]” the “inhibition of rat JNK1 mRNA levels” value (rat JNK1 mRNA) was “at least 90%”.
In the case of “21861 (antisense CGGTAGGCTCGCTTAGCATG; 2'-O-methyl wings, phosphorothioate gap, chemistry not fully specified) [compound 21861]”, the “capacity to modulate both JNK1 and JNK2 (Pan JNK)” value (rat JNK2 mRNA; A10 cells) is reported as “demonstrated a capacity to modulate both JNK1 and JNK2” and the “inhibition of rat JNK1 mRNA levels” value (rat JNK1 mRNA) is reported as “at least 90%”.
In the case of “21862 (antisense CTAGGGATTTCTGTGGTGTG; 2'-O-methyl wings, phosphorothioate gap, chemistry not fully specified) [compound 21862]”, the “inhibition of rat JNK1 mRNA levels” value (rat JNK1 mRNA) is reported as “at least 90%”.
“21864 (antisense TCGTTCCTGCAGTCCTTGCC; 2'-O-methyl wings, phosphorothioate gap, chemistry not fully specified) [compound 21864]” was tested, and the “inhibition of rat JNK1 mRNA levels” value (rat JNK1 mRNA) was “at least 90%”.
In the case of “21865 (antisense CCATTTCTCCCATAATGCAC; 2'-O-methyl wings, phosphorothioate gap, chemistry not fully specified) [compound 21865]”, the “inhibition of rat JNK1 mRNA levels” value (rat JNK1 mRNA) is reported as “at least 90%”.
With “21866 (antisense TGAATTCAGGACAAGGTGTT; 2'-O-methyl wings, phosphorothioate gap, chemistry not fully specified) [compound 21866]” the “inhibition of rat JNK1 mRNA levels” value (rat JNK1 mRNA) was “at least 90%”.
“21867 (antisense AGCTTCGTCTACGGAGATCC; 2'-O-methyl wings, phosphorothioate gap, chemistry not fully specified) [compound 21867]” was tested, and the “capacity to modulate both JNK1 and JNK2 (Pan JNK)” value (rat JNK2 mRNA; A10 cells) was “demonstrated a capacity to modulate both JNK1 and JNK2” and the “inhibition of rat JNK1 mRNA levels” value (rat JNK1 mRNA) was “at least 90%”.
“C^sC^sA^sA^sG^sC^sG^sG^sG^sC^sC^sT^sA^sC^sA^sG^sA^sG^sA^sG (sense dC*dC*dA*dA*dG*dC*dG*dG*dG*dC*dC*dT*dA*dC*dA*dG*dA*dG*dA*dG) [ISIS 14320, reference compound]” was tested, and the “dose- and sequence-dependent response on JNK1 mRNA levels” value (JNK1 mRNA) was “neither of the control oligonucleotides effect any consistent response”.
“C^sT^sT^sT^sC^sC^sG^sT^sT^sG^sG^sA^sC^sC^sC^sC^sT^sG^sG^sG (dC*dT*dT*dT*dC*dC*dG*dT*dT*dG*dG*dA*dC*dC*dC*dC*dT*dG*dG*dG; further chemistry not given here) [ISIS 14321, reference compound]” was tested, and the “dose- and sequence-dependent response on JNK1 mRNA levels” value (JNK1 mRNA) was “neither of the control oligonucleotides effect any consistent response”.
